Measured values: article PMC12613816, “Discovery of Novel Isoxazole-Based Small-Molecule Toll-Like Receptor 8 Antagonists” (Journal of Medicinal Chemistry, 2025)

Key:
THP-1 macrophages = test: Cell viability (MTT) in THP-1 macrophages; format: cell-based, human; settings: 24 h, up to 100 μM
Description: Effects on cell viability were assessed by the MTT assay. […] Subsequently, 25 μL of MTT (3-(4,5-dimethylthiazol-2-yl)-2,5-diphenyltetrazolium bromide, 5 mg/mL) was added and incubated for 4 h at 37 °C. After the supernatants were removed, DMSO (4720.1, Carl Roth, Karlsruhe, Germany) was added and absorption at 540 nm was measured. Viability of the untreated cells was defined as 100%. DMSO (10% (v/v); A994.1, Carl Roth, Karlsruhe, Germany) served as a positive control. page 9: Figure S8. […] (A) THP-1 Macrophages were incubated with increasing concentrations of 10 and 12 for 24 h. Cell viability was analyzed using the MTT assay, and normalized to non-stimulated cells (vehicle control). DMSO (10%, v/v) was used as the cytotoxic control. Mean + SEM (n=3). (B) PBMCs

PBMCs = test: Cell viability (LDH release) in PBMCs; format: cell-based, human; settings: 24 h, up to 100 μM
Description: In selected experiments, LDH assay was performed according to the manufacturer’s instructions (Thermo fisher Scientific, Darmstadt, Germany). The percentage of LDH release was calculated compared to the 100% cell lysis control.
(A) THP-1 Macrophages were incubated with increasing concentrations of 10 and 12 for 24 h. Cell viability was analyzed using the MTT assay, and normalized to non-stimulated cells (vehicle control). DMSO (10%, v/v) was used as the cytotoxic control. Mean + SEM (n=3). (B) PBMCs were incubated with 0.6 µM TL8-506 or increasing concentrations of 10 and 12 for 24 h. LDH […]
maximum LDH release. Mean + SEM (n=3-4).

TLR2 or TLR4 = test: TNF release in THP-1 macrophages stimulated with TLR2 or TLR4 agonists (Pam3CSK4, Pam2CSK4, LPS); format: cell-based, human; settings: 10 μM compound, 24 h
Source text: Mean ± SEM (n = 3). […] Mean + SEM (n = 4).

[1] = test system: TLR2/1, TLR2/6, TLR3, TLR4, TLR5, TLR7, TLR9; test: TLR specificity in hTLR-HEK293 reporter cells (NF-κB SEAP); format: cell-based, human; settings: 10 μM compound
Description: (§1) Mean + SEM (n = 3). […] Bar graphs show mean + SEM (n = 3). […] Mean + SEM (n = 4). […] Whole-cell lysates were used for WB. […] Mean + SEM (n = 4). […] Mean + SEM (n = 4). […] Mean ± SEM (n = 3).
(§2) HEK-Blue cells (4 × 10^4 cells/well) and THP-1 macrophages (4 × 10^4 cells/well, 4 × 10^5 cells/well and 8 × 10^5 cells/well) were seeded in 96-well plates, 24-well plates, or 6-well plates (PS, Sarsted, Germany), respectively. For stimulation experiments, cells were washed with phosphate-buffered saline (PBS, Sigma-Aldrich) and media was replaced with OptiMEM (Thermo Fisher Scientific, Darmstadt, Germany). […] The following TLR ligands were used: Pam2CSK4, Pam3CSK4, poly(I:C) (HMW), LPS from Escherichia coli O111:B4 (LPS-EB Ultrapure), flagellin from Bacillus subtilis (flagellin-BS Ultrapure), CL307, CL075, R848, TL8-506, ODN2006 (all from InvivoGen, Toulouse, France), and Enpatoran (BIOZOL Diagnostika, Germany).

[2] = test system: TNF and IL1B mRNA expression; test: TNF and IL1B mRNA expression (qRT-PCR) in TL8-506-stimulated THP-1 macrophages; format: cell-based, human; settings: 10 μM, TL8-506 (6 μM) 1 h
IL-1β release = IL-1β release after TLR8 priming and NLRP3 activation in THP-1 macrophages; format: cell-based, human; settings: 10 μM, TL8-506 priming, nigericin or ATP
Source text: as §1

p-NF-κB p65, IκBα = test: Western blot of NF-κB pathway proteins in TL8-506-stimulated THP-1 macrophages; format: cell-based, human; settings: 10 μM, TL8-506 (0.6 μM) 15 min
Source text: as §1
Twenty-five μg protein per lane was separated on a 10% TGX Stain-Free FastCast acrylamide gel (1610183, Bio-Rad, Feldkirchen, Germany) containing TEMED (2367, Carl Roth, Karlsruhe, Germany) and ammonium persulfate (A3678, Sigma-Aldrich, Taufkirchen, Germany) using MiniPROTEAN electrophoresis system (Bio-Rad). Gels were blotted on low fluorescence polyvinylidene difluoride membranes (Immobilon-FL PVDF low fluorescence; 05317, Merck, Darmstadt, Germany) using the Trans-Blot Turbo System (Bio-Rad, Feldkirchen, Germany). Membranes were blocked using 5% milk (T145.2, Carl Roth, Karlsruhe, Germany) in TBS-T buffer consisting of TRIS HCl (T3253, Sigma-Aldrich, Taufkirchen, Germany), NaCl (27810.295, VWR, Darmstadt, Germany), and Tween 20 (9127.1, Carl Roth, Karlsruhe, Germany). […] Afterward, they were washed three times with TBS-T and incubated with either rabbit anti-IgG HRP conjugated antibody (no. 7074) or mouse anti-IgG HRP conjugated antibody (no. 7076), all from Cell Signaling Technology (CST, Leiden, The Netherlands), for one h at RT. […] Values of protein expression were analyzed by densitometry and normalized to total protein levels using Image lab 6.1 Bio-Rad, Feldkirchen, Germany.

hTLR7 = target: T1, hTLR7 (Homo sapiens, UniProt Q9NYK1); test: Inhibition of CL307-stimulated NF-κB activity (SEAP reporter) in hTLR7-HEK293 reporter cells; format: cell-based
T1 construct: host or cells: HEK293 (HEK-Blue hTLR7)
T1 sequence (Q9NYK1 27-1049): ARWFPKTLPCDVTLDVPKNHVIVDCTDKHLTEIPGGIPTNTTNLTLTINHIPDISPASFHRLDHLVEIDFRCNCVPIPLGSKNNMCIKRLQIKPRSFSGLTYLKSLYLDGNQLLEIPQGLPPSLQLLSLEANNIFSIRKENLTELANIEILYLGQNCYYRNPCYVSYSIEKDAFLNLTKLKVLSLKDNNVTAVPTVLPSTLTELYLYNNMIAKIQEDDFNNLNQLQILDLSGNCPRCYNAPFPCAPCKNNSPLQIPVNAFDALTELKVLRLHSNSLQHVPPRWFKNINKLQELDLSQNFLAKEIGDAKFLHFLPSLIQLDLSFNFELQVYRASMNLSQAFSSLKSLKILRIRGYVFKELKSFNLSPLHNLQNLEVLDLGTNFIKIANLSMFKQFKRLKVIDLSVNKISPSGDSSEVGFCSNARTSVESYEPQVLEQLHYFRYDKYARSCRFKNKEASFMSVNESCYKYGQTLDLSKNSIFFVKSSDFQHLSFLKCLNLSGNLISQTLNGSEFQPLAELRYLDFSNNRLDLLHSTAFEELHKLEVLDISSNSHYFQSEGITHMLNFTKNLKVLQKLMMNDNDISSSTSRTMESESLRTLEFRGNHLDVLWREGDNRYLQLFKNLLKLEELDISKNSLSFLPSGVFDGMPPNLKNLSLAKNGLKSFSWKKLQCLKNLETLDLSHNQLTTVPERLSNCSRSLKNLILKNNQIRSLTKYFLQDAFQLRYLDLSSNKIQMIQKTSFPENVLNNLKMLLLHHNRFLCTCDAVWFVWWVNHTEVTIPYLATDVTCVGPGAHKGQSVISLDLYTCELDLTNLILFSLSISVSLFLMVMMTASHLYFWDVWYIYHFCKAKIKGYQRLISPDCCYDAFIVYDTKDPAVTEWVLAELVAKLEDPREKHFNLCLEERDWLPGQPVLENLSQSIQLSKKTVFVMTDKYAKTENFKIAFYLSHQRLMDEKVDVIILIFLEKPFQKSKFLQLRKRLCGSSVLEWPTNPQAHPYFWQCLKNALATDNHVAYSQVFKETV
Source text: as §2, with “For” for “HEK-Blue cells (4 × 10^4 cells/well) and THP-1 macrophages (4 × 10^4 cells/well, 4 × 10^5 cells/well and 8 × 10^5 cells/well) were seeded in 96-well plates, 24-well plates, or 6-well plates (PS, Sarsted, Germany), respectively. For”

TLR8 [3] = target: T2, TLR8 (Homo sapiens, UniProt Q9NR97); test: Inhibition of TL8-506-stimulated NF-κB activity (SEAP reporter, QuantiBlue) in hTLR8-HEK293 reporter cells; format: cell-based; set-up: host or cells: HEK293 (HEK-Blue hTLR8)
T2 sequence (Q9NR97 27-1041): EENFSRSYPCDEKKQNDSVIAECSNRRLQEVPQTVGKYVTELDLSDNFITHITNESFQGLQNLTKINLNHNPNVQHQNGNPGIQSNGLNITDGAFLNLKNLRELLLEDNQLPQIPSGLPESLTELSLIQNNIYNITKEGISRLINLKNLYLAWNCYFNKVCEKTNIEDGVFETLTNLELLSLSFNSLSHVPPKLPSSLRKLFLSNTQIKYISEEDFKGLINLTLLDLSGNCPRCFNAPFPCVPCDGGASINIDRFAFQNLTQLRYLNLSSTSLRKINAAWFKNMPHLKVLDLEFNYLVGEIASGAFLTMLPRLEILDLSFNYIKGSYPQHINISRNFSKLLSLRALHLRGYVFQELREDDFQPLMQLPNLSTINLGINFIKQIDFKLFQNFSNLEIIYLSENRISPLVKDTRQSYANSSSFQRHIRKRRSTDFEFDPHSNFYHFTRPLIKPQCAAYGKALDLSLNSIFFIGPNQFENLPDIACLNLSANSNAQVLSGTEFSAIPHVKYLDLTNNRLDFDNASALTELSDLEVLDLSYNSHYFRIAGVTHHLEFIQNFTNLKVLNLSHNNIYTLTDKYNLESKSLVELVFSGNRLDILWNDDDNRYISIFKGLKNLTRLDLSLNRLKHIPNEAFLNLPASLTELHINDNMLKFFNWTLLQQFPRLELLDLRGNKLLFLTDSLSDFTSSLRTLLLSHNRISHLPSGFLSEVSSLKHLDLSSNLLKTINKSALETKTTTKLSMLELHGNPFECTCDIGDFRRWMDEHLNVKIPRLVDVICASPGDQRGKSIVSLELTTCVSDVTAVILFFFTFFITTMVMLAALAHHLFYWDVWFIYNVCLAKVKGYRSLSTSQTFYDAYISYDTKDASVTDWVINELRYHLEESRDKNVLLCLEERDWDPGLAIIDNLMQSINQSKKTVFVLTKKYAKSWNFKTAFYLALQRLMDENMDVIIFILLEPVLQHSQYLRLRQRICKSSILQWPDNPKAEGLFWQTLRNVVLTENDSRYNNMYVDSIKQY

TLR8 [4] = target: T2, TLR8; test: Inhibition of TL8-506-stimulated TNF release (ELISA) in PBMCs; settings: read-out: IC50 [μM] (95% CI) TNF release PBMCs, 1 h preincubation, TL8-506 (0.6 μM) 4 h
TLR8 [5] = target: T2, TLR8; test: Inhibition of TLR8 agonist-stimulated TNF release (ELISA) in THP-1 macrophages

Row | SMILES | Cell viability THP-1 macrophages (THP-1 macrophages) | Cell viability PBMCs (PBMCs) | TNF responses to TLR2 or TLR4 agonists (TLR2 or TLR4) | Activity against other TLRs (NF-κB activation) [1] | mRNA expression levels of TNF and IL1B [2] | IL-1β release (IL-1β release) | IκBα level (p-NF-κB p65, IκBα) | p-NF-κB p65 level (p-NF-κB p65, IκBα) | Selectivity factor IC50 (TLR7)/ IC50 (TLR8) (hTLR7; hTLR7-HEK293 vs hTLR8-HEK293) | IC50 (hTLR7; read-out: IC50 [μM] (95% CI) hTLR7-HEK293, inhibition of NF-κB activity, 1 h preincubation, CL307 (1.7 µM) 24 h) | IC50 (TLR8 [3]) | inhibition at 10 µM (TLR8 [3]; read-out: % inhibition at 10 µM ± SEM (NF-κB activity), 10 µM compound, TL8-506 (0.6 μM) 24 h, hTLR8-HEK293) | IC50 (TLR8 [3]; read-out: IC50 [μM] (95% CI) hTLR8-HEK293, inhibition of NF-κB activity, 1 h preincubation, TL8-506 (0.6 μM) 24 h) | IC50 (TLR8 [4]) | TNF production in response to TLR8 agonists TL8-506 or CL075 (TLR8 [5]; 10 μM compound, THP-1 macrophages, 24 h) | IC50 (TLR8 [5]; read-out: IC50 [μM] (95% CI) TNF release THP-1 macrophages, 1 h preincubation, TL8-506 (0.6 μM) 4 h, ELISA)
1 | CCN1CCC(NC(=O)c2ccc(OCc3c(C)noc3C)c(OC)c2)CC1 [Compound 10] | unaffected up to 100 μM | without affecting cell viability up to 100 μM | without influencing responses | no significant activity against other TLRs | significantly inhibited | blocked | increased | reduced |  |  |  |  |  |  |  | 
2 | COc1cc(C(=O)NCC(c2ccc(C)cc2)N(C)C)ccc1OCc1c(C)noc1C (stereo not shown) [Compound 12] | unaffected up to 100 μM | without affecting cell viability up to 100 μM | without influencing responses |  |  |  |  |  | >102 | > 50 µM | < 0.5 µM | 83 ± 15% | 0.5 µM | 1.15 µM | selectively inhibited | 0.12 µM
